Laboratory results: ChEMBL document CHEMBL3632488, “Discovery of potent and selective cytotoxic activity of new quinazoline-ureas against TMZ-resistant glioblastoma multiforme (GBM)” (Eur J Med Chem, 2015)
pIC50: −log10 of the molar value.

How the values were obtained:
[1] = Selectivity index, ratio of IC50 for normal human astrocytes to IC50 for human GBM3 cells
[2] = Antiproliferative activity against human GBM1 cells assessed as reduction in cell viability incubated for 72 hrs by WST-1 method; type: functional, cell-based; conditions: GBM1, 72 h
[3] = Selectivity index, ratio of IC50 for normal human astrocytes to IC50 for human GBM1 cells
[4] = Antiproliferative activity against human GBM2 cells assessed as reduction in cell viability at 10 uM incubated for 72 hrs by WST-1 method; type: functional; conditions: GBM2, 72 h
[5] = Antiproliferative activity against human GBM1 cells assessed as reduction in cell viability at 10 uM incubated for 72 hrs by WST-1 method; type: functional; conditions: GBM1, 72 h
[6] = Selectivity index, ratio of IC50 for normal human astrocytes to IC50 for human GBM2 cells
[7] = Cytotoxicity against normal human astrocytes assessed as cell viability incubated for 72 hrs by WST-1 method; type: cell-based; conditions: Astrocyte
[8] = Antiproliferative activity against human GBM2 cells assessed as reduction in cell viability incubated for 72 hrs by WST-1 method; type: functional, cell-based; conditions: GBM2, 72 h
[9] = Antiproliferative activity against human GBM3 cells assessed as reduction in cell viability incubated for 72 hrs by WST-1 method; type: functional, cell-based; conditions: GBM3, 72 h
[10] = Antiproliferative activity against human GBM3 cells assessed as reduction in cell viability at 10 uM incubated for 72 hrs by WST-1 method; type: functional; conditions: GBM3, 72 h

| Structure (SMILES) | Ratio IC50 [1] | pIC50 [2] | Ratio IC50 [3] | inhibition at 10 µM [4] [%] | inhibition at 10 µM [5] [%] | Ratio IC50 [6] | pIC50 [7] | pIC50 [8] | pIC50 [9] | inhibition at 10 µM [10] [%] |
| --- | --- | --- | --- | --- | --- | --- | --- | --- | --- | --- |
| O=C(Nc1cc2ncncc2cc1OCc1ccc(F)cc1)Nc1cccc2ccccc12 | 1.2 | 5.09 | 1.2 | 99 | 99.3 | 1.2 | 5.07 | 5.35 | 5.08 | 94.4 |
| O=C(Nc1ccccc1F)Nc1cc2ncncc2cc1OCc1cccc(Cl)c1 | 1.6 | 5.38 | 1.6 | 82.3 | 73 | 1.6 | 5.06 | 5.36 | 5.12 | 58.8 |
| O=C(Nc1cccc(F)c1)Nc1cc2ncncc2cc1OCc1ccccc1Cl | 2.9 | 5.40 | 2.9 | 102 | 97.7 | 2.9 | 5.03 | 5.49 | 5.62 | 102 |
| O=C(Nc1ccccc1F)Nc1cc2ncncc2cc1OCc1cccc(F)c1 | >1.3 | 5.10 | >1.3 | 74.5 | 63 | >1.3 | < 5.00 | 5.19 | 5.09 | 61.4 |
| O=C(Nc1ccc(C(F)(F)F)cc1)Nc1cc2ncncc2cc1OCc1cccc(Cl)c1 | 2 | 5.47 | 2 | 94.6 | 75.7 | 2 | 5.06 | 5.33 | 5.29 | 90.1 |
| O=C(Nc1cccc(Cl)c1)Nc1cc2ncncc2cc1OCc1ccccc1 | 1.4 | 5.24 | 1.4 | 97.3 | 79.1 | 1.4 | 5.13 | 5.39 | 5.19 | 74.8 |
| O=C(Nc1ccc(C(F)(F)F)cc1)Nc1cc2ncncc2cc1OCc1cccc(F)c1 | 2 | 5.42 | 2 | 99.5 | 76.2 | 2 | 5.05 | 5.49 | 5.20 | 95.4 |
| O=C(Nc1ccccc1F)Nc1cc2ncncc2cc1OCc1ccccc1 | >1.8 | 5.21 | >1.8 | 83.7 | 72 | >1.8 | < 5.00 | 5.35 | 5.23 | 75.5 |
| O=C(Nc1ccc(Cl)c(Cl)c1)Nc1cc2ncncc2cc1OCc1ccccc1F |  | 5.39 |  | 87.6 | 84.4 |  | 5.41 | 5.22 | < 5.00 | 50.2 |
| CCc1c2c(nc3ccc(OC(=O)N4CCC(N5CCCCC5)CC4)cc13)-c1cc3c(c(=O)n1C2)COC(=O)[C@]3(O)CC |  | < 5.00 |  | 91.8 | 34.1 |  | < 5.00 | 5.62 | 5.30 | 54.1 |
| COc1cc([C@@H]2c3cc4c(cc3[C@@H](O[C@@H]3O[C@@H]5CO[C@@H](C)O[C@H]5[C@H](O)[C@H]3O)[C@H]3COC(=O)[C@H]23)OCO4)cc(OC)c1O [ETOPOSIDE] |  | < 5.00 |  | 88.2 | 53.5 |  | < 5.00 | 5.96 | < 5.00 | 22.1 |
